Five compounds from ChEMBL document CHEMBL1201862, “PubChem BioAssay data set” (2004) can be followed below.

Test systems include A498; ACHN; CCRF-CEM; COLO 205; EKVX; HCT-15; HOP-92; K562; M14; NCI-H522; OVCAR-3; OVCAR-5; OVCAR-8; RXF 393; SF-295; SN12C; UACC-257; UO-31.
Test in all cases: DTP human tumour cell line panel, 48 h

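96-well plates; 48 h exposure; 5 concentrations. Endpoints by linear interpolation between flanking doses. Not reached: highest tested concentration assigned. GI50: concentration for 50% inhibition of growth.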 Activity calls are given as the source filed them. Cut-off read from the data, not from the text of the source: active = GI50 up to about 1.1 µM and inactive = higher.

Take `C/C(=N\NS(=O)(=O)c1ccc(C)cc1)C(CN1CCCCC1)C(c1ccccc1)c1c(O)c2ccccc2oc1=O` (stereo not given): the GI50 is > 100 µM (inactive) with A498; > 100 µM (inactive) with ACHN; > 100 µM (inactive) in the assay on CCRF-CEM; > 100 µM (inactive) in the assay on COLO 205; > 100 µM (inactive) with EKVX; more than 100 µM in the assay with HCT-15. Further, the GI50 in the assay on HOP-92 was 95.7 µM (inactive); with K562 it was > 100 µM (inactive); in the assay on M14, > 100 µM (inactive); in the assay on NCI-H522, 80.9 µM (inactive); with OVCAR-3 it was > 100 µM (inactive); with OVCAR-5, > 100 µM (inactive). Moreover, the GI50 with OVCAR-8 is > 100 µM (inactive); in the assay with RXF 393 it was 39.6 µM (inactive); in the assay on SF-295, > 100 µM (inactive); in the assay on SN12C, > 100 µM (inactive); in the assay with UACC-257, > 100 µM (inactive); in the assay with UO-31, > 100 µM (inactive).

With `N#Cc1nc(/C=C/c2cccnc2)oc1N`, the GI50 in the assay with A498 was > 100 µM (inactive); with ACHN, > 100 µM (inactive); in the assay on CCRF-CEM it was > 100 µM (inactive); with COLO 205, > 100 µM (inactive); in the assay on EKVX, > 100 µM (inactive); with HCT-15 it was more than 100 µM. Moreover, the GI50 in the assay with HOP-92, in the assay with K562, in the assay with M14, in the assay on NCI-H522, with OVCAR-3 and in the assay with OVCAR-5 was > 100 µM (inactive) each time. For the same compound, the GI50 in the assay on RXF 393, in the assay on SF-295, with SN12C, with UACC-257 and in the assay with UO-31 was > 100 µM (inactive) in each case.

As for `COc1cc(/C=C/C(=O)c2sc(NNC(C)=O)nc2C)ccc1O`, the GI50 with A498 was 84.3 µM (inactive); in the assay on ACHN it was > 100 µM (inactive); in the assay with CCRF-CEM it was > 100 µM (inactive); in the assay with COLO 205 it was > 100 µM (inactive); in the assay on EKVX, > 100 µM (inactive); in the assay with HCT-15 it was more than 100 µM. The GI50 in the assay on HOP-92, in the assay with K562, with NCI-H522, in the assay with OVCAR-3, in the assay on OVCAR-5 and in the assay on OVCAR-8 was > 100 µM (inactive) throughout. Further, the GI50 in the assay with RXF 393, with SF-295, with SN12C, in the assay on UACC-257 and with UO-31 was > 100 µM (inactive) in each case.

Turning to `C=C1CCCCCCCCCCC12SCCC2CCCCSC` (stereo not given), the GI50 in the assay with A498 was 20.8 µM (inactive); in the assay with ACHN, 20.3 µM (inactive); in the assay with COLO 205 it was 19 µM (inactive); in the assay with EKVX it was 34.6 µM (inactive); in the assay with HCT-15, 26 µM; with HOP-92, 28.1 µM (inactive). The GI50 was 22.9 µM (inactive) in the assay with K562; 19.9 µM (inactive) in the assay on M14; 17.2 µM (inactive) in the assay on NCI-H522; 16.7 µM (inactive) with OVCAR-3; 20 µM (inactive) in the assay on OVCAR-5; 28.8 µM (inactive) with OVCAR-8. Also, the GI50 in the assay with RXF 393 was 29.2 µM (inactive); in the assay on SF-295 it was 19.9 µM (inactive); in the assay on SN12C, 24.3 µM (inactive); in the assay with UACC-257, 26.1 µM (inactive); in the assay with UO-31 it was 35 µM (inactive).

For `CCCCCCCCCCCc1c(O)c(=O)c2c(oc3c(=O)c(CCCCCCCCCCC)c(O)c(=O)c3n2-c2ccc(N(C)C)cc2)c1=O`, the GI50 in the assay with A498 is 20.7 µM (inactive); in the assay with ACHN, 20.7 µM (inactive); in the assay on CCRF-CEM it was 26 µM (inactive); in the assay with COLO 205 it was 20 µM (inactive); with EKVX, 24 µM (inactive); with HCT-15 it was 18.6 µM. Also, the GI50 was 52.8 µM (inactive) in the assay with K562; 16.3 µM (inactive) in the assay with M14; 58.3 µM (inactive) with NCI-H522; 18.8 µM (inactive) in the assay with OVCAR-3; 23.8 µM (inactive) in the assay with OVCAR-5; 23.3 µM (inactive) in the assay on OVCAR-8. Also, the GI50 with RXF 393 was 25 µM (inactive); in the assay on SF-295, 21.8 µM (inactive); in the assay on SN12C, 19.2 µM (inactive); in the assay with UACC-257 it was 20 µM (inactive).
